Tested on: Wnt/β-catenin pathway
Experiment: Wnt reporter assay (TCF-Luciferase, Firefly) in DBTRG-05MG cells
Type: cell-based
Settings: Homo sapiens, 24 hours after compound addition
Protocol: TCF-Luciferase: Three copies of a 4×TCF responsive elements were cloned into the pcDNA3.1/Zeo(+) vector (Invitrogen) after deletion of the constitutive CMV promoter and the insertion of the Firefly Luciferase from Promega (phFL-TK) to measure the activity of the Wnt/β-catenin pathway. The resulting plasmid was sequenced for quality control.
Cells were grown in 20 μg/ml Zeocin and 20 μg/ml Zeocin plus 30 μg/ml Hygromicin respectively. The cells were plated at a density of 6500 cells/well in poly-D-lysine pre-treated 96 well-plates.
IC50 determination: 36 hours after plating cells were incubated with 8-points (60 μM-40 μM-20 μM-10 μM-5 μM-1.66 μM-0.55 μM-0.185 μM) dilutions compound (0.6% DMSO (v/v)). Each compound was tested in triplicate in single plate. Luciferase detection was done with Dual-Luciferase Reporter Assay System (Promega). 24 hours after compound addition, media was removed and 30 μl of 1× lysis buffer was added to each well for 30 minutes. To each well 45 μl of Dual-Glo Luciferase reagent (Promega) were added and after 1 second delay Luciferase was detected for 1 second using Mithras LB940 instrument. After Firefly luciferase quantification 45 μl of Dual Stop & Glo reagent (Promega) were added to each well and Firefly Renilla was detected using the same parameters described before.
Data were expressed as % of control for Firefly and Renilla luciferase independently; values were calculated using XLFit version 4.2, with a four parameters sigmoid function (XLFit model 205).

SMILES	IC50 [µM]
COc1ccc2c(c1)c(=O)n(C[C@H]1CC[C@H](C(=O)N3CCN(C(=O)C(C)OC)CC3)CC1)c(=O)n2C (stereo partly shown) [Example 142]	0.3 to 30
Cc1ccc2[nH]c(=O)n(C[C@H]3CC[C@H](C(=O)N4CCN(C(=O)C(C)C)CC4)CC3)c(=O)c2c1 [Example 143]	0.3 to 30
COCC(=O)N1CCN(C(=O)[C@H]2CC[C@H](Cn3c(=O)c4cc(OC)ccc4n(C)c3=O)CC2)[C@H](C)C1 [Example 144]	0.3 to 30
COCC(=O)N1CCN(C(=O)[C@H]2CC[C@H](Cn3c(=O)c4cc(OC)ccc4n(C)c3=O)CC2)[C@@H](C)C1 [Example 145]	0.3 to 30
COc1ccc2c(c1)c(=O)n(C[C@H]1CC[C@H](C(=O)N3CCN(C(=O)c4ccncn4)CC3)CC1)c(=O)n2C [Example 147]	0.3 to 30
COc1ccc2c(c1)c(=O)n(C[C@H]1CC[C@H](C(=O)Nc3ccc(C)nc3)CC1)c(=O)n2C [Example 148]	0.3 to 30
COCC(=O)N1CCN(C(=O)[C@H]2CC[C@H](Cn3c(=O)c4cc(OC)ccc4n(C)c3=O)CC2)C[C@@H]1C [Example 149]	0.3 to 30
COc1ccc2c(c1)c(=O)n(C[C@H]1CC[C@H](C(=O)N3CCN(C(=O)C4CC4)[C@H](C)C3)CC1)c(=O)n2C [Example 150]	0.3 to 30
COCC(=O)N1CCN(C(=O)[C@H]2CC[C@H](Cn3c(=O)c4cc(OC)ccc4n(C)c3=O)CC2)C[C@H]1C [Example 151]	0.3 to 30
COc1ccc2[nH]c(=O)n(C[C@H]3CC[C@H](C(=O)N4CCN(C(=O)C5CC5)[C@@H](C)C4)CC3)c(=O)c2c1 [Example 152]	0.3 to 30
COc1ccc2c(c1)c(=O)n(C[C@H]1CC[C@H](C(=O)Nc3cccnc3)CC1)c(=O)n2C [Example 153]	0.3 to 30
COc1ccc2c(c1)c(=O)n(C[C@H]1CC[C@H](C(=O)Nc3ccc(OC)nc3)CC1)c(=O)n2C [Example 154]	0.3 to 30
COc1ccc2c(c1)c(=O)n(C[C@H]1CC[C@H](C(=O)Nc3ccc(OC)nc3OC)CC1)c(=O)n2C [Example 155]	0.3 to 30
COc1ccc2c(c1)c(=O)n(C[C@H]1CC[C@H](C(=O)N3CCN(C(=O)C4CC4)[C@@H](C)C3)CC1)c(=O)n2C [Example 156]	0.3 to 30
COc1ccc2[nH]c(=O)n(C[C@H]3CC[C@H](C(=O)N4CCN(C(=O)C5CC5)[C@H](C)C4)CC3)c(=O)c2c1 [Example 157]	0.3 to 30
COc1ccc2[nH]c(=O)n(C[C@H]3CC[C@H](C(=O)N4CCN(C(=O)C5CC5)CC4)CC3)c2n1 [Example 158]	0.3 to 30
COCC(=O)N1CCN(C(=O)[C@H]2CC[C@H](Cn3c(=O)[nH]c4ccc(OC)cc4c3=O)CC2)C[C@@H]1C [Example 159]	0.3 to 30
COc1ccc2[nH]c(=O)n(C[C@H]3CC[C@H](C(=O)N4CCN(C)C(=O)C4)CC3)c2c1 [Example 160]	0.3 to 30
CCOc1ccc2[nH]c(=O)n(C[C@H]3CC[C@H](C(=O)N4CCN(C(=O)C5CC5)CC4)CC3)c(=O)c2c1 [Example 161]	0.3 to 30
CCOc1ccc2[nH]c(=O)n(C[C@H]3CC[C@H](C(=O)N4CCN(C(=O)C(C)C)CC4)CC3)c(=O)c2c1 [Example 162]	0.3 to 30
Cn1c(=O)n(C[C@H]2CC[C@H](C(=O)N3CCN(C(=O)C4CC4)CC3)CC2)c2cc(C(F)(F)F)ccc21 [Example 163]	0.3 to 30
Cn1c(=O)n(C[C@H]2CC[C@H](C(=O)N3CCOCC3)CC2)c2c(Cl)cccc21 [Example 164]	0.3 to 30
COc1ccc2c(c1)c(=O)n(C[C@H]1CC[C@H](C(=O)Nc3ccncc3)CC1)c(=O)n2C [Example 165]	0.3 to 30
COc1ccc2c(n1)n(C[C@H]1CC[C@H](C(=O)N3CCN(C(=O)C4CC4)CC3)CC1)c(=O)n2C [Example 166]	0.3 to 30
COc1ccc2c(n1)n(C[C@H]1CC[C@H](C(=O)N3CCOCC3)CC1)c(=O)n2C [Example 167]	0.3 to 30

SMILES	IC50 [µM]
Cn1c(=O)n(C[C@H]2CC[C@H](C(=O)N3CCN(C(=O)C4CC4)CC3)CC2)c2c(Cl)cccc21 [Example 168]	0.3 to 30
CN1CCN(C(=O)[C@H]2CC[C@H](Cn3c(=O)n(C)c4ccc(C(F)(F)F)cc43)CC2)CC1=O [Example 170]	0.3 to 30
COc1ccc2c(c1)c(=O)n(C[C@H]1CC[C@H](C(=O)N3CCN(C(=O)n4ccnc4)CC3)CC1)c(=O)n2C [Example 171]	0.3 to 30
COc1ccc2c(c1)c(=O)n(C[C@H]1CC[C@H](C(=O)Nc3ccncc3C)CC1)c(=O)n2C [Example 172]	0.3 to 30
COc1ccc2c(c1)c(=O)n(C[C@H]1CC[C@H](C(=O)Nc3ccc(F)nc3)CC1)c(=O)n2C [Example 173]	0.3 to 30
COc1ccc2c(c1)c(=O)n(C[C@H]1CC[C@H](C(=O)Nc3cncc(F)c3)CC1)c(=O)n2C [Example 174]	0.3 to 30
CCOC(=O)N1CCN(C(=O)[C@H]2CC[C@H](Cn3c(=O)c4cc(OC)ccc4n(C)c3=O)CC2)CC1 [Example 176]	0.3 to 30
COc1ccc2c(c1)c(=O)n(C[C@H]1CC[C@H](C(=O)Nc3ccnc(OC)c3)CC1)c(=O)n2C [Example 177]	0.3 to 30
COc1cccc2c1CN(C[C@H]1CC[C@H](C(=O)N3CCN(c4nccs4)CC3)CC1)C(=O)N2 [Example 178]	0.3 to 30
COc1ccc2c(c1)c(=O)n(C[C@H]1CC[C@H](C(=O)N3CCN(C(C)=O)CC3)CC1)c(=O)n2C(F)F [Example 179]	0.3 to 30
CC(=O)N1CCN(C(=O)[C@H]2CC[C@H](Cn3c(=O)n(C)c4ccc(Cl)cc43)CC2)CC1 [Example 180]	0.3 to 30
Cn1c(=O)n(C[C@H]2CC[C@H](C(=O)N3CCOCC3)CC2)c2cc(Cl)ccc21 [Example 181]	0.3 to 30
COC(=O)N1CCN(C(=O)[C@H]2CC[C@H](Cn3c(=O)n(C)c4ccc(OC)cc43)CC2)CC1 [Example 182]	0.3 to 30
COCC(=O)N1CCN(C(=O)[C@H]2CC[C@H](Cn3c(=O)n(C)c4ccc(OC)cc43)CC2)CC1 [Example 183]	0.3 to 30
COc1ccc2c(c1)n(C[C@H]1CC[C@H](C(=O)N3CCN(C(=O)C(C)C)CC3)CC1)c(=O)n2C [Example 184]	0.3 to 30
COc1ccc2c(c1)n(C[C@H]1CC[C@H](C(=O)N3CCN(C(=O)c4cncn4C)CC3)CC1)c(=O)n2C [Example 185]	0.3 to 30
COc1cc2c(cc1Cl)n(C[C@H]1CC[C@H](C(=O)N3CCOCC3)CC1)c(=O)n2C [Example 186]	0.3 to 30
COc1ccc2c(c1)c(=O)n(C[C@H]1CC[C@H](C(=O)Nc3ccc4ncccc4c3)CC1)c(=O)n2C [Example 187]	0.3 to 30
COc1ccc2c(c1)c(=O)n(C[C@H]1CC[C@H](C(=O)Nc3cccc4ncccc34)CC1)c(=O)n2C [Example 188]	0.3 to 30
COc1ccc2c(c1)c(=O)n(C[C@H]1CC[C@H](C(=O)Nc3ccc(-c4ncco4)cc3)CC1)c(=O)n2C [Example 189]	0.3 to 30
COc1ccc2c(c1)c(=O)n(C[C@H]1CC[C@H](C(=O)Nc3cnc4ccccn34)CC1)c(=O)n2C [Example 190]	0.3 to 30
COc1cccc(NC(=O)[C@H]2CC[C@H](Cn3c(=O)c4cc(OC)ccc4n(C)c3=O)CC2)c1 [Example 191]	0.3 to 30
COc1ccc2c(c1)n(C[C@H]1CC[C@H](C(=O)N3CCN(C(=O)C4CCCO4)CC3)CC1)c(=O)n2C (stereo partly shown) [Example 192]	0.3 to 30
COc1ccc2c(c1)c(=O)n(C[C@H]1CC[C@H](C(=O)Nc3ccon3)CC1)c(=O)n2C [Example 193]	0.3 to 30
